pIC50: −log10 of the molar value. Like-named read-outs stand apart in the source and are kept apart here.
Columns and labels:
[1] = system: A431; experiment: Cell anti-proliferation experiment (CTG); type: cell-based; conditions: Homo sapiens, A431 (wild-type EGFR), class symbol
Description: (§1) H1975 has an EGFR: T790M/L858R double mutation, PC-9 has an EGFR exon 19 deletion, and HCC827 has an exon 19 deletion mutation. Baf3-19del- T790M -C797S (Baf3-DTC) is a stable Ba/F3 clone expressing exogenous EGFR gene bearing T790M, C797S, and […] triple amino acid mutations, purchased from KYinno. Baf3-L858R-T790M - C797S (Baf3-LTC) is a stable Ba/F3 clone expressing exogenous EGFR gene bearing […], T790M, and C797S triple mutations, purchased from KYinno. A549 is a wild-type EGFR, purchased from Nanjing Kebai Biotechnology. A431 is a wild-type EGFR, purchased from Shanghai Xinyu Biotechnology. CellCounting-Lite2.0, Trypsin EDTA, 37°C CO2 incubator, cell counter, EnVision Serial No. 1050454.
(§2) • A) Digested logarithmic phase cells with Trypsin EDTA, added culture medium to stop the reaction, and mixing well with a pipette to prepare a cell suspension. • B) Used Vi-cell to determine cell concentration, and prepared a suspension of 15,000-25,000 cells per milliliter according to the experimental purpose and cell characteristics. • C) After prepared the cell suspension, mixed it gently and added 100 µL to each well, so that the cell density to be tested is 1500-2500 per well.
(§3) • A) Weighed approximately 2 mg the compound and calculated the required volume of DMSO according to the formula: Compound mass (mg) * Compound purity (%) / Compound molecular weight * 1000. • B) Placed the inoculated cell culture plate into an incubator and incubated for about 24 hours. Then added compounds of varying concentrations. • C) Diluted the 10mM compound stock solution to […] with culture medium, and added the […] compound solution to the second column of the deep well plate in sequence, and added […] culture medium containing 0.5% DMSO to the third to eleventh columns. • D) Gradient dilution: Taked 125 µL solution from the second column and added it to the third column, mix well; then taked 125 µL solution from the third column and added it to the fourth column, repeated this operation until the tenth column. • E) Used a multichannel pipette, aspirated 25 µL the compound from the deep-well plate and added it to a 96-well culture plate. Repeated this process three times for each compound on the 96-well plate. This will ultimately create a concentration gradient of up to 10,000 nM at a 1:4 ratio on the 96-well plate.
(§4) • A) The effects of the compound were observed under an inverted microscope after the 96-well plate was incubated in an incubator for 72 hours. • B) Added 25 µL CTG solution to each well, placed on a shaker for 10 minutes, and read the […] of each well.
(§5) Calculate the % Cell Viability using the following formula: %Cell Viability = 100% × (Lum_Sample−Lum_LC)/(Lum_HC−Lum_LC) [formula] • Lum_HC: Cell readings from the 0.1% DMSO control group • Lum_Sample: Cell readings with added compound • Lum_LC: Blank culture medium reading
(§6) The IC50 value was obtained by curve fitting using GraphPad Prism 8 software.

[2] = system: Baf3-19del- T790M -C797S (Baf3-DTC); experiment: Cell anti-proliferation experiment (CTG); type: cell-based; conditions: class symbol
Description: as §1, §2, §3, §4, §5, §6

[3] = system: Baf3-L858R-T790M - C797S (Baf3-LTC); experiment: Cell anti-proliferation experiment (CTG); type: cell-based; conditions: class symbol
Description: as §1, §2, §3, §4, §5, §6

[4] = system: HCC827; experiment: Cell anti-proliferation experiment (CTG); type: cell-based; conditions: Homo sapiens, HCC827 (exon 19 deletion), class symbol
Description: as §1, §2, §3, §4, §5, §6

[5] = system: H1975; experiment: Cell anti-proliferation experiment (CTG); type: cell-based; conditions: Homo sapiens, H1975 (EGFR T790M/L858R), class symbol
Description: as §1, §2, §3, §4, §5, §6

[6] = system: PC-9; experiment: Cell anti-proliferation experiment (CTG); type: cell-based; conditions: Homo sapiens, PC-9 (EGFR exon 19 deletion), class symbol
Description: as §1, §2, §3, §4, §5, §6

[7] = system: A549; experiment: Cell anti-proliferation experiment (CTG); type: cell-based; conditions: Homo sapiens, A549 (wild-type EGFR), class symbol
Description: as §1, §2, §3, §4, §5, §6

[8] = biological target: EGFR in Baf3-19del-T790M-C797S (Homo sapiens, UniProt P00533, C797S/DEL746-750/T790M); experiment: EGFR PROTAC HTRF experiment (total EGFR degradation); type: cell-based
Procedure: (§7) [table] Among them, B[…] -C797S (abbreviated as Baf3-DTC) is a stable Ba/F3 clone expressing exogenous EGFR gene bearing T790M, C797S and […] triple amino acid mutations, purchased from KYinno; Baf3-L858R-T790M - C797S (abbreviated as Baf3-LTC) is a stable Ba/F3 clone expressing exogenous EGFR gene bearing […], T790M, C797S triple mutations, purchased from KYinno. [table] [table] Dilutded Eu and d2 antibodies 2μl per well with detection buffer 20-fold. Then mixed the two antibody vials thoroughly. [table] Opened EnVision , locate the HTRF program, configured the board, and then read […]. The fitted curve, DC50 and Dmax of this compound could be generated using GraphPad Prism .

[9] = biological target: EGFR in Baf3-L858R-T790M-C797S (Homo sapiens, UniProt P00533, C797S/L858R/T790M); experiment: as above; type: cell-based
Procedure: as §7

[10] = Pharmacokinetic tests in male SD rats; type: in vivo; conditions: oral gavage (po), 10 mg/kg, plasma
Procedure: Three healthy adult male SD rats, 6-8 weeks old, weighing 200-300 grams.
EDTA-Na2 anticoagulant, weighed 11.2 g EDTA-Na2 and placed it in a reagent bottle. Added 100 mL physiological saline and shaked to dissolve completely. After preparation, dispensed into 1.5 mL centrifuge tubes, each containing approximately 20 µL, for whole blood sample collection.
Accurately weighed approximately 10 mg the sample to be tested, added 10% of the converted total volume of DMSO to dissolve it, and then slowly added 90% of the total volume of 0.5% MC solvent while stirring. Sonicated and vortex to mix thoroughly to obtain a solution of the preparation that is considered to be homogeneous, with a concentration of 1 mg/mL. Prepared fresh immediately before use.
Piped 0.2 mL the sample into a 1.5 mL centrifuge tube and store at -80°C for analysis of the concentration of the drug solution.
Animals were housed in rat cages and fasted for at least 10 hours starting the day before the experiment, but water was allowed. On the day of the experiment, each animal was weighed and marked on its tail. Blank blood samples were collected before drug administration. Blood was collected via tail vein.
• Route of administration: Oral gavage (po); • Dosage concentration: 1 mg/ml; • Dosage: 10 mg/kg; • Dosage volume: 10 mL/kg; • Procedure: Hold the rat upright with your left hand wearing a bite-proof glove, insert the gavage needle into the throat through the mouth, and insert the needle when feeling no obvious resistance. Then inject the drug into the stomach.
Whole blood (0.1-0.2 ml) was collected from test animals at 0.5 h, 1 h, 2 h, 4 h, 6 h, 8 h, 12 h, and 24 h after drug administration. The samples were placed in EDTA-Na 2 anticoagulant tubes, inverted 3-4 times to mix, and centrifuged at 4°C, 2000 g for 5 min to separate the supernatant plasma. The plasma was promptly transferred to -80°C for storage until analysis. Blood was collected via tail vein.
A quantitative detection method for the analyte was established using Shimadzu liquid chromatography and Triple Quad™ 6500+AB mass spectrometry. The concentration of the parent drug in plasma was analyzed. The analytical results were controlled for variation using quality control samples, with the accuracy of the quality control samples expected to be between 80% and 120%.
The main pharmacokinetic parameters were calculated using a non-compartmental model in Winnonlin Phoenix software. These parameters included the area under the curve (AUC(0-t) and AUC(0-∞)), elimination half-life (T1/2), maximum plasma concentration (Cmax ), and time to reach maximum plasma concentration (Tmax).The results are shown in Table 3.

[11] = Baf3-DTC, incubated 16 hours, HTRF total EGFR; read-out: Baf3-DTC DC50
[12] = Baf3-DTC, incubated 16 hours, HTRF total EGFR; read-out: Baf3-DTC Dmax
[13] = Baf3-LTC, incubated 16 hours, HTRF total EGFR; read-out: Baf3-LTC DC50
[14] = Baf3-LTC, incubated 16 hours, HTRF total EGFR; read-out: Baf3-LTC Dmax

Chain of EGFR in Baf3-19del-T790M-C797S (P00533 with tags, fused parts or gaps DEL746-750/T790M/C797S): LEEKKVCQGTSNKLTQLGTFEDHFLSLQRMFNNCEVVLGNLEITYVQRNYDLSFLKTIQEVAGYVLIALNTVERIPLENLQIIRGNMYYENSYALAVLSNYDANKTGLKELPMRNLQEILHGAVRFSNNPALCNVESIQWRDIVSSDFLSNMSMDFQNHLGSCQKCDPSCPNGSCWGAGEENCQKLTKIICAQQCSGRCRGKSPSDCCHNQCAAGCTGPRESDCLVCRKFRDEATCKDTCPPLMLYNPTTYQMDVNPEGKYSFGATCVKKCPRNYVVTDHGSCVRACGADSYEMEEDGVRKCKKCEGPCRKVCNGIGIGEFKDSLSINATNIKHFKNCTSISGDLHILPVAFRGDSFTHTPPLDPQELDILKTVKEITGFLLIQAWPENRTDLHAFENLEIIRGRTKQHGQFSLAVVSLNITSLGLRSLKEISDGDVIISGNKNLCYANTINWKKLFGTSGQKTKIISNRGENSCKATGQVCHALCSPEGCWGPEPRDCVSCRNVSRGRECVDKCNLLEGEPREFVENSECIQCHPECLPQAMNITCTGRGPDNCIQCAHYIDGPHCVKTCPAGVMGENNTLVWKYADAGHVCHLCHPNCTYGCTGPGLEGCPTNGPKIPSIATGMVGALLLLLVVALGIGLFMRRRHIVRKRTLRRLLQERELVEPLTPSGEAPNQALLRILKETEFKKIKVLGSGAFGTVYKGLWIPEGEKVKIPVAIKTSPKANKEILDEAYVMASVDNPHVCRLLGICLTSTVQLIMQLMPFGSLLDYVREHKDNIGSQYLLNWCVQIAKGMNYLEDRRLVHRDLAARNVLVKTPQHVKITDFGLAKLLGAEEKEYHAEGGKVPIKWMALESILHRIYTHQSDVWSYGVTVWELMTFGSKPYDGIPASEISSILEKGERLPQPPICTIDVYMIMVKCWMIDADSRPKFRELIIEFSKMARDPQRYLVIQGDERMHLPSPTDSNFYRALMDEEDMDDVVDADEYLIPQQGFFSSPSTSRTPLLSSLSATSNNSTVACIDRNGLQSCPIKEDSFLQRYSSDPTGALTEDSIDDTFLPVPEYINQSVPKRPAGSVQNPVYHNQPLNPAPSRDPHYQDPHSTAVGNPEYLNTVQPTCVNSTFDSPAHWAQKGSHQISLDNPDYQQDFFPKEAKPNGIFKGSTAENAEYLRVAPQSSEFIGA
Chain of EGFR in Baf3-L858R-T790M-C797S (P00533 25-1210 T790M/C797S/L858R): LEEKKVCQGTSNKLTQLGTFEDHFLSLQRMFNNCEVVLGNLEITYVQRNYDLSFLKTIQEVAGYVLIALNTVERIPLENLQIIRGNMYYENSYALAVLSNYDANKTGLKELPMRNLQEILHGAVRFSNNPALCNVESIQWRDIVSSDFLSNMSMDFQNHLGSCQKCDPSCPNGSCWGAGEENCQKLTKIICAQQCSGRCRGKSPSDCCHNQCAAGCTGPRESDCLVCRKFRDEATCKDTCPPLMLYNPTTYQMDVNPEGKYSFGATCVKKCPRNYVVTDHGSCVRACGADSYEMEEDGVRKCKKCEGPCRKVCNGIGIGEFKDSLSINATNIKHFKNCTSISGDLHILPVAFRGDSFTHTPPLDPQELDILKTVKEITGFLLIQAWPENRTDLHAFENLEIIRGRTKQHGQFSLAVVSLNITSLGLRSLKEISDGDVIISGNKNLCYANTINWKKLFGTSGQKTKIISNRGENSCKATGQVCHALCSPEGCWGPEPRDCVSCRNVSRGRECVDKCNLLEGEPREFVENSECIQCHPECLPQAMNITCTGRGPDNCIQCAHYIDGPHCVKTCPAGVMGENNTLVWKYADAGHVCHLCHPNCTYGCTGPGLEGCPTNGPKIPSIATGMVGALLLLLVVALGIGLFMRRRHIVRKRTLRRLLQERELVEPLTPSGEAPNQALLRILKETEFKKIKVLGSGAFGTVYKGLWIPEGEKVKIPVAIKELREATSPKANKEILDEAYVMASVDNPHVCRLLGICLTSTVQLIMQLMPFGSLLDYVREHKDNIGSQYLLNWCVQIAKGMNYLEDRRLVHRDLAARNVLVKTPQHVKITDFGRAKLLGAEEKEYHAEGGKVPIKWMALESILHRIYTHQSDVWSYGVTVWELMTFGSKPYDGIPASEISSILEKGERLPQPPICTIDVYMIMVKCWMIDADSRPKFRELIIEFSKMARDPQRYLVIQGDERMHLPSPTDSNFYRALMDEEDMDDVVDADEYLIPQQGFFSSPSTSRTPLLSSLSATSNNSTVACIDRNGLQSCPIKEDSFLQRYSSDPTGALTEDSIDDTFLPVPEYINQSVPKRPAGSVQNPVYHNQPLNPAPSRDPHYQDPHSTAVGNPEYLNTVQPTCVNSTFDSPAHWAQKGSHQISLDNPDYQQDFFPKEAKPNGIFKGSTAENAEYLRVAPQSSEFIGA

Compound: CCc1cc(Nc2ncc(Cl)c(Nc3ccc4nccnc4c3P(C)(C)=O)n2)c(OC)cc1N1CCN(C(=O)CN2CCC(c3cc4c(cc3F)c(N3CCC(=O)NC3=O)nn4C)C(F)(F)C2)CC1 (stereo not shown) [TA-007]
- pIC50 ([1]; A-431, 72 hours): 7.00 to 8.00
- pIC50 ([2]; 72 hours): 7.00 to 8.00
- pIC50 ([3]; 72 hours): > 8.00
- pIC50 ([4]; 72 hours): 7.00 to 8.00
- pIC50 ([5]; NCI-H1975, 72 hours): 6.00 to 7.00
- pIC50 ([6]; 72 hours): 6.00 to 7.00
- pIC50 ([7]; 72 hours): 7.00 to 8.00
- DC50 ([8]; read-out: Baf3-DTC DC50; Baf3-DTC, incubated 16 hours, HTRF total EGFR): < 10 nM
- Dmax ([8]; read-out: Baf3-DTC Dmax): 70 to 100%
- DC50 ([9]; read-out: Baf3-LTC DC50; Baf3-LTC, incubated 16 hours, HTRF total EGFR): < 10 nM
- Dmax ([9]; read-out: Baf3-LTC Dmax): 70 to 100%

Compound: CCc1cc(Nc2ncc(Cl)c(Nc3ccc(Cl)cc3C(C)(C)O)n2)c(OC)cc1N1CCN(C(=O)CN2CCC(c3cc4c(cc3F)c(N3CCC(=O)NC3=O)nn4C)C(F)(F)C2)CC1 (stereo not shown) [TA-009]
- DC50 [8, 11]: 100 to 1000 nM
- Dmax [8, 12]: 70 to 100%
- DC50 [9, 13]: 100 to 1000 nM
- Dmax [9, 14]: 70 to 100%

Compound: CCc1cc(Nc2ncc(Cl)c(Nc3ccccc3N(C)S(C)(=O)=O)n2)c(OC)cc1N1CCN(C(=O)CN2CCC(c3cc4c(cc3F)c(N3CCC(=O)NC3=O)nn4C)C(F)(F)C2)CC1 (stereo not shown) [TA-013]
- pIC50 ([1]; A-431, 72 h): < 6.00
- pIC50 ([2]; 72 h): > 8.00
- pIC50 ([3]; 72 h): 7.00 to 8.00
- pIC50 ([4]; HCC827, 72 h): < 6.00
- pIC50 ([5]; NCI-H1975, 72 h): 7.00 to 8.00
- pIC50 ([6]; PC-9, 72 h): < 6.00
- pIC50 ([7]; A549, 72 h): < 6.00
- DC50 [8, 11]: < 10 nM
- Dmax [8, 12]: 70 to 100%
- DC50 [9, 13]: < 10 nM
- Dmax [9, 14]: 70 to 100%

Compound: CCc1cc(Nc2ncc(Cl)c(Nc3ccc(OC)cc3C(C)=O)n2)c(OC)cc1N1CCN(C(=O)CN2CCC(c3cc4c(cc3F)c(N3CCC(=O)NC3=O)nn4C)C(F)(F)C2)CC1 (stereo not shown) [TA-017]
- DC50 [8, 11]: 100 to 1000 nM
- Dmax [8, 12]: 70 to 100%
- DC50 [9, 13]: 100 to 1000 nM
- Dmax [9, 14]: 70 to 100%

Compound: CCc1cc(Nc2ncc(Cl)c(Nc3ccccc3P(C)(C)=O)n2)c(OC)cc1N1CCN(C(=O)CN2CCC(c3cc4c(cc3F)c(N3CCC(=O)NC3=O)nn4C)C(F)(F)C2)[C@@H](C)C1 (stereo partly shown) [TA-025]
- DC50 [8, 11]: 10 to 100 nM
- Dmax [8, 12]: 70 to 100%
- DC50 [9, 13]: 10 to 100 nM
- Dmax [9, 14]: 70 to 100%

Compound: CCc1ccc(Nc2nc(Nc3cc(CC)c(N4CCN(C(=O)CN5CCC(c6cc7c(cc6F)c(N6CCC(=O)NC6=O)nn7C)C(F)(F)C5)CC4)cc3OC)ncc2Cl)c(P(C)(C)=O)c1 (stereo not shown) [TA-035]
- DC50 [8, 11]: 10 to 100 nM
- Dmax ([8]; read-out: Baf3-DTC Dmax): 70 to 100%
- DC50 [9, 13]: 10 to 100 nM
- Dmax ([9]; read-out: Baf3-LTC Dmax): 70 to 100%

Compound: CCc1cc(Nc2ncc(Cl)c(Nc3ccccc3P3(=O)CCCC3)n2)c(OC)cc1N1CCN(C(=O)CN2CCC(c3cc4c(cc3F)c(N3CCC(=O)NC3=O)nn4C)C(F)(F)C2)CC1 (stereo not shown) [TA-045]
- DC50 [8, 11]: 10 to 100 nM
- Dmax ([8]; read-out: Baf3-DTC Dmax): 70 to 100%
- DC50 [9, 13]: 10 to 100 nM
- Dmax ([9]; read-out: Baf3-LTC Dmax): 70 to 100%

Compound: CCc1cc(Nc2ncc(Br)c(Nc3ccccc3P(C)(C)=O)n2)c(OC)cc1N1CCN(C(=O)Cn2nc(C)c(-c3cc4c(cc3F)c(N3CCC(=O)NC3=O)nn4C)c2C)CC1 [TC-144]
- HL [10]: 3.21 h
- AUC(0-inf) ([10]; rat, in vivo): 4140 ng·h/mL
- AUC(0-t) ([10]; rat, in vivo): 4120 ng·h/mL
- Cmax ([10]; rat, in vivo): 700 ng/mL
- MRT last ([10]; rat, in vivo): 4.23 h
- Tmax ([10]; rat, in vivo): 0.67 h
- pIC50 ([1]; A-431, 72 h): < 6.00
- pIC50 ([2]; 72 h): > 8.00
- pIC50 ([3]; 72 h): > 8.00
- pIC50 ([4]; HCC827, 72 h): 6.00 to 7.00
- pIC50 ([5]; NCI-H1975, 72 h): 7.00 to 8.00
- pIC50 ([6]; PC-9, 72 h): 6.00 to 7.00
- pIC50 ([7]; A549, 72 h): 6.00 to 7.00

Source: patent EP4813979A1, “COMPOUND FOR EGFR PROTEIN DEGRADATION AND USE THEREOF” (TYK Medicines, Inc., priority 2023, dated 2025)
